Measured values from PubChem BioAssay (NCI).
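Values below derive from 48-hour exposures of cells grown in 96-well plates, with endpoints linearly interpolated between the two concentrations bracketing the appropriate inhibition level. TGI: concentration producing complete growth inhibition.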

Assays:
Assay in all cases: NCI-60 cell line screen, 48 h
786-0 renal = system: 786-0 renal
A498 renal = system: A498 renal
A549 NSCLC = system: A549 NSCLC
ACHN renal = system: ACHN renal
BT-549 breast = system: BT-549 breast
CAKI-1 renal = system: CAKI-1 renal
CCRF-CEM leukemia = system: CCRF-CEM leukemia
COLO 205 colon = system: COLO 205 colon
DU-145 prostate = system: DU-145 prostate
EKVX NSCLC = system: EKVX NSCLC
HCC-2998 colon = system: HCC-2998 colon
HCT-116 colon = system: HCT-116 colon
HCT-15 colon = system: HCT-15 colon
HL-60(TB) leukemia = system: HL-60(TB) leukemia
HOP-62 NSCLC = system: HOP-62 NSCLC
HOP-92 NSCLC = system: HOP-92 NSCLC
HS 578T breast = system: HS 578T breast
HT29 colon = system: HT29 colon
IGROV1 ovarian = system: IGROV1 ovarian
K-562 leukemia = system: K-562 leukemia
KM12 colon = system: KM12 colon
M14 melanoma = system: M14 melanoma
MCF7 breast = system: MCF7 breast
MDA-MB-231 breast = system: MDA-MB-231 breast
MDA-MB-435 = system: MDA-MB-435
MOLT-4 leukemia = system: MOLT-4 leukemia
NCI-H226 lung = system: NCI-H226 lung
NCI-H23 lung = system: NCI-H23 lung
NCI-H460 lung = system: NCI-H460 lung
NCI-H522 lung = system: NCI-H522 lung
NCI/ADR-RES ovarian = system: NCI/ADR-RES ovarian
OVCAR-4 ovarian = system: OVCAR-4 ovarian
OVCAR-5 ovarian = system: OVCAR-5 ovarian
OVCAR-8 ovarian = system: OVCAR-8 ovarian
PC-3 prostate = system: PC-3 prostate
RPMI-8226 leukemia = system: RPMI-8226 leukemia
RXF 393 renal = system: RXF 393 renal
SF-268 CNS = system: SF-268 CNS
SF-295 CNS = system: SF-295 CNS
SF-539 CNS = system: SF-539 CNS
SK-MEL-2 melanoma = system: SK-MEL-2 melanoma
SK-MEL-28 melanoma = system: SK-MEL-28 melanoma
SK-MEL-5 melanoma = system: SK-MEL-5 melanoma
SK-OV-3 ovarian = system: SK-OV-3 ovarian
SN12C renal = system: SN12C renal
SNB-19 CNS = system: SNB-19 CNS
SNB-75 CNS = system: SNB-75 CNS
SR leukemia = system: SR leukemia
SW-620 colon = system: SW-620 colon
T-47D breast = system: T-47D breast
TK-10 renal = system: TK-10 renal
U251 CNS = system: U251 CNS
UACC-257 melanoma = system: UACC-257 melanoma
UACC-62 melanoma = system: UACC-62 melanoma
UO-31 renal = system: UO-31 renal

Work on `Nc1nc(CCl)nc(N2CCOCC2)n1` yielded a TGI (786-0 renal) of 29.2 µM, a TGI (A498 renal) greater than 100 µM and a TGI (A549 NSCLC) greater than 100 µM. The TGI (ACHN renal) was 32.5 µM, the TGI (BT-549 breast) was greater than 100 µM and the TGI (CAKI-1 renal) was 30.5 µM. For the same compound, the TGI (CCRF-CEM leukemia) was 45.7 µM, the TGI (COLO 205 colon) was 32.5 µM and the TGI (DU-145 prostate) was greater than 100 µM. For the same compound, the TGI (EKVX NSCLC) was 38 µM, the TGI (HCC-2998 colon) was 36.3 µM and the TGI (HCT-116 colon) was 66.1 µM. For the same compound, the TGI (HCT-15 colon) was 34.9 µM, the TGI (HL-60(TB) leukemia) was 35.6 µM and the TGI (HOP-62 NSCLC) was 44.5 µM. It also gave a TGI (HOP-92 NSCLC) of 32.2 µM, a TGI (HS 578T breast) greater than 100 µM and a TGI (HT29 colon) greater than 100 µM. For the same compound, the TGI (IGROV1 ovarian) was 32.6 µM, the TGI (K-562 leukemia) was 54.4 µM and the TGI (KM12 colon) was greater than 100 µM. The TGI (M14 melanoma) was greater than 100 µM, the TGI (MCF7 breast) was greater than 100 µM and the TGI (MDA-MB-231 breast) was 78.7 µM. It also gave a TGI (MDA-MB-435) greater than 100 µM, a TGI (MOLT-4 leukemia) greater than 100 µM and a TGI (NCI-H226 lung) greater than 100 µM. The TGI (NCI-H23 lung) was 35.1 µM, the TGI (NCI-H460 lung) was 41.1 µM and the TGI (NCI-H522 lung) was 11.1 µM. It also gave a TGI (NCI/ADR-RES ovarian) of 89.2 µM, a TGI (OVCAR-4 ovarian) of 33.4 µM and a TGI (OVCAR-5 ovarian) of 47.3 µM. The TGI (OVCAR-8 ovarian) was greater than 100 µM, the TGI (PC-3 prostate) was greater than 100 µM and the TGI (RPMI-8226 leukemia) was greater than 100 µM. The TGI (RXF 393 renal) was greater than 100 µM, the TGI (SF-268 CNS) was greater than 100 µM and the TGI (SF-295 CNS) was greater than 100 µM. The TGI (SF-539 CNS) was 51.9 µM, the TGI (SK-MEL-2 melanoma) was greater than 100 µM and the TGI (SK-MEL-28 melanoma) was 45.9 µM. For the same compound, the TGI (SK-MEL-5 melanoma) was 46.2 µM, the TGI (SK-OV-3 ovarian) was greater than 100 µM and the TGI (SN12C renal) was greater than 100 µM. It also gave a TGI (SNB-19 CNS) greater than 100 µM, a TGI (SNB-75 CNS) of 98.6 µM and a TGI (SR leukemia) of 61.8 µM. It also gave a TGI (SW-620 colon) of 60.4 µM, a TGI (T-47D breast) greater than 100 µM and a TGI (TK-10 renal) greater than 100 µM. For the same compound, the TGI (U251 CNS) was 53.9 µM, the TGI (UACC-257 melanoma) was greater than 100 µM and the TGI (UACC-62 melanoma) was 31.4 µM. For the same compound, the TGI (UO-31 renal) was 31.6 µM.
